Legend:
[1] = test system: Puf-A; experiment: Effect of small molecules blocking downstream effectors of Kras pathway on Puf-A expression (Western blot); format: cell-based; conditions: H460 and HCT116 cancer cells
Description: FIG. 3C is a series of bar graphs showing Puf-A promoter activity in Kras^G12D or c-Myc transfected cells, determined by dual-luciferase reporter assay. FIG. 3D illustrates the binding of c-Myc protein to exon 1 of Puf-A locus in H1299 and HCT116 cells. […] FIG. 3F is an assembly of the Western blot images illustrating the effect of Raf inhibitor (Raf (i)), MEK1 inhibitor (PD98059) and MEK1/2 inhibitor (U0126) on the expression of Puf-A, phosphorylated ERK1/2, total ERK1/2 and β-actin in H460 (Kras ^Q61H) and HCT116 (Kras^G13D) cancer cells.
The effect of various small molecules (such as Raf(i), PD98059 and UO126), which block the downstream effectors of Kras pathway (such as Rafs, MEK1 and MEK2), was assessed in H460 and HCT116 cancer cells.

[2] = test system: HCT116 colon cancer cells; experiment: Cell proliferation assay, xCELLigenece RTCA system, HCT116; format: cell-based; conditions: 25 and 50 uM
Experimental: (§1) FIG. 9A is an assembly of Western blot images illustrating 25 and 50 uM of resveratrol reduced the expression of Puf-a in A549 lung cancer cells, HCT116 colon cancer cells, MB231 breast cancer cells and T98 glioblatoma cells. FIG. 9B is an assembly of graphs illustrating 25 and 50 uM of resveratrol was effective in reducing the proliferation of A549 lung cancer cells, HCT116 colon cancer cells, MB231 breast cancer cells and T98 glioblatoma cells.
(§2) An in vitro evaluation of the effect of Resveratrol on the expression level of Puf-a protein and cell proliferation in various cancer cells was examined. The following cancer cells were treated with 0, 25 or 50 uM of Resveratrol (commercially available from Sigma, USA): A549 lung cancer cells (p53 proficient), HCT116 colon cancer cells (p53 proficient), MB231 breast cancer cells (p53 deficient) and T98 glioblatoma cells (p53 deficient). The expression of Puf-A protein in these cancer cells was analyzed by western blot and the cell proliferation was measured with a cell proliferation assay performed with xCELLigenece RTCA system (ACEA Biosciences Inc, USA). FIG. 9A is an assembly of Western blot images illustrating 25 and 50 uM of resveratrol reduced the expression of Puf-A in A549 lung cancer cells, HCT116 colon cancer cells, MB231 breast cancer cells and T98 glioblatoma cells. […]

[3] = test system: A549 lung cancer cells; experiment: Cell proliferation assay, xCELLigenece RTCA system, A549; format: cell-based; conditions: 25 and 50 uM
Experimental: as §1, §2

[4] = test system: Puf-A protein; experiment: Effect of resveratrol on Puf-A protein expression (Western blot); format: cell-based; conditions: 25 and 50 uM
Experimental: as §1
An in vitro evaluation of the effect of Resveratrol on the expression level of Puf-a protein and cell proliferation in various cancer cells was examined. The following cancer cells were treated with 0, 25 or 50 uM of Resveratrol (commercially available from Sigma, USA): A549 lung cancer cells (p53 proficient), HCT116 colon cancer cells (p53 proficient), MB231 breast cancer cells (p53 deficient) and T98 glioblatoma cells (p53 deficient). The expression of Puf-A protein in these cancer cells was analyzed by western blot and the cell proliferation was measured with a cell proliferation assay performed with xCELLigenece RTCA system (ACEA Biosciences Inc, USA). FIG. 9A is an assembly of Western blot images illustrating 25 and 50 uM of resveratrol reduced the expression of Puf-A in A549 lung cancer cells, HCT116 colon cancer cells, MB231 breast cancer cells and T98 glioblatoma cells. FIG. 9B is an assembly of graphs illustrating 25 and 50 uM of resveratrol reduced the proliferation of A549 lung cancer cells, HCT116 colon cancer cells, MB231 breast cancer cells and T98 glioblatoma cells compare to the control group (no resveratrol).

[5] = test system: T98 glioblatoma cells; experiment: Cell proliferation assay, xCELLigenece RTCA system, T98; format: cell-based; conditions: 25 and 50 uM
Experimental: as §1, §2

[6] = test system: MB231 breast cancer cells; experiment: Cell proliferation assay, xCELLigenece RTCA system, MB231; format: cell-based; conditions: 25 and 50 uM
Experimental: as §1, §2

[7] = test system: LC3-II, LAMP1; experiment: Immunofluorescence staining of LC3-II and LAMP1 after shPuf-A-1 transduction; format: cell-based
Description: (§3) FIG. 7A is an assembly of images showing the effect of control shRNA, shPuf-A-1 and Puf-A-2 on Puf-A expression and cleaved form of PARP1, by transducing control shRNA, shPuf-A-1 and Puf-A-2 into the following p53-deficient and p53-proficient cell lines: A549, H460, U87, HCT116, H1299, CL1-5, MB231, LN229 and T98. FIG. 7B is a series of flow cytometry (FACS) images, illustrating the cell-cycle of Puf-A depleted (shPuf-A transduced) p53 proficient (p53 wild type) and p53 deficient (p53 defective) cancer cell lines. FIG. 7C is a series of Western blot images showing the effect shPuf-A-1 transduction on the expression of Puf-A, LC3 (marker for autophagosome), LAMP2 (marker for lysosome) and p62 (an autophagy substrate) in p53^+/+HCT116, p53^−/−HCT116, and p53^−/−H1299 cancer cell lines. FIG. 7D is a Western Blot image illustrating the effect of suppressing p53 and Puf-A in p53-proficient cells (H460). FIG. 7E is a series of immunofluorescence images illustrating the effect of silencing Puf-A, by shPuf-A-1 transduction, on LC3 (green), Lamp1 (red) and DAPI (blue) expression in p53 proficient (p53^+/+) HCT116, P53 deficient (p53^−/−) HCT116 and H1299 cancer cells. FIG. 7F is a series of graphs illustrating reduced proliferation rate of p53^−/− HCT116 and H1299 cells after shPuf-A-1 and shPuf-A-2 transduction compared to control shRNA transduction.

[8] = test system: LC3-II, LAMP2, p62; experiment: Autophagy markers after shPuf-A transduction (Western blot); format: cell-based; conditions: p53-proficient cells (p53+/+ HCT116)
Description: as §3, with “transduction. […]” for “transduction.”

[9] = test system: Puf-A proteins; experiment: Puf-A protein expression after shPuf-A transduction of cancer cell lines (Western blot); format: cell-based; conditions: A549, H460, H1299, CL1-5, HCT116, MB231, U87, LN229, T98 cells
Description: as §3, with “FIG. 7F is a series of graphs illustrating reduced proliferation rate of p53^−/− HCT116 and H1299 cells after shPuf-A-1 and shPuf-A-2 transduction compared to control shRNA transduction.” left out
The biological function of Puf-A on cancer cells was assessed, using lung cancer cells (A549, H460, H1299 and CL1-5); colorectal cancer cells (HCT116); breast cancer cells (MB231) and glioblastoma cells (U87, LN229 and T98).

[10] = test system: p53 and p21; experiment: p53 and p21 protein/RNA expression in p53 proficient cancer cells after Puf-A suppression; format: cell-based; conditions: A549, H460 or HCT116 p53 proficient cells
Description: FIG. 8A is a series of Western blot, RT-PCR and Q-PCR images, illustrating shPuf-A1 and shPuf-A2 transduction increases the expression of p53 and p21 and reduces transcripts of PUF-A in the following p53-proficient (p53^+/+) cancer cell lines: A549, H460, and HCT116. FIG. 8B is a series of immunostaining images illustrating the expression of p53 (red) and DAPI (blue, internal control) in p53-proficient (p53^+/+) cancer cell lines A549, H460 and HCT116 cells and P53 deficient (p53^−/−) HCT116 cancer cells after control shRNA and shPuf-A-1 transduction. FIG. 8C is a series of bar graphs illustrating the FACS analyzed cell-cycles of Puf-A depleted cancer cells, A549, H460 and HCT116, with different p53 genotypes.
The effect of Puf-A suppression on the expression level of p53 and p21 protein/RNA in p53 proficient cancer cells was examined, by infecting A549, H460 or HCT116 cancer cells with shPuf-A-1, shPuf-A-2 or control shRNA viral vectors. […] Cell-cycle progression of the same cancer cell lines was analyzed by FACS.

[11] = test system: Puf-A RNA; experiment: Puf-A knockdown by shRNA lentivirus vectors, RT-PCR and Q-PCR; format: cell-based, human; conditions: for knockdown efficiency on Puf-A expression compared to control shRNA: HCT116 and H1299 cells, Q-PCR (FIG. 6D); for expression level of Puf-A RNA compared to control shRNA: p53-proficient (p53+/+ HCT116) and p53-deficient (p53−/− HCT116, p53−/− H1299) cells, GAPDH internal control
Experimental: FIG. 6A show the nucleotide sequence of human Puf-A gene (SEQ ID NO:1). […] FIG. 6C and FIG. 6D illustrate the Puf-A knockdown efficiency of control shRNA, shPuf-A-1 and shPuf-A-2 in colorectal cancer cells (HCT116) and lung cancer cells (H1299), determined by RT-PCR and Q-PCR analyses.
The effect of the shRNAs constructs in FIG. 6B on Puf-A expression was evaluated using p53-proficient (p53^+/+ HCT116) and p53-deficient (p53^−/− HCT116 and p53^−/− H1299). The cells were transduced with control shRNA, shPuf-A-1 and shPuf-A-2 lentivirus vectors and Puf-A expression was determined by […] and Q-PCR. […] The knockdown efficiencies of shPuf-A-1 and shPuf-A-2 on Puf-A expression were approximately 90% and 75%, respectively, compare to the control shRNA (FIG. 6D).

[12] = test system: p53-deficient and P53-proficient cancer cells; experiment: Proliferation rate of cancer cells after shPuf-A transduction; format: cell-based; conditions: p53-deficient and P53-proficient cancer cells (FIG. 7F)
Description: as §3, with “transduction. […]” for “transduction.”

[13] = test system: adenoma-bearing LSL-Kras^G12D/p53^flox mice; experiment: In vivo evaluation of Puf-A suppression in tumourigenesis (intranasal lentiviral shRNA); conditions: lentiviral vector intranasally twice a week for two weeks; sacrificed 6 weeks after Kras^G12D activation and p53 deletion
Description: FIG. 5A schematically illustrates the in vivo study design of Puf-A shRNA delivery to knock down Puf-A. FIG. 5B is an assembly of microscopic images illustrating the number of tumor foci in mice administered with of control shRNA or Puf-A shRNA. FIG. 5C is a series of bar graphs illustrating the counted numbers of tumor foci (>250 μm) in mice with adenocarcinoma (left bar graph) and adenoma (right bar graph), after the administration of control or Puf-A-2 shRNA.
An in vivo evaluation of Puf-A suppression in tumourigenesis was performed using LSL-Kras^G12D1p53^flox mice.
FIG. 5A schematically illustrates the study design. LSL-Kras^G12D/p53^flox mice developed adenoma after 2 weeks of Kras^G12D activation and p53 deletion. Lentiviral vector, expressing shPuf-A-2 (a Puf-A shRNA) or control shRNA, was intranasally delivered to adenoma-bearing LSL-Kras^G12D/p53^flox mice twice a week for two weeks. The mice were sacrificed 6 weeks after Kras^G12D activation and p53 deletion.

Compound: COc1cccc(-c2cc(=O)c3ccccc3o2)c1N [PD98059]
- expression levels of Puf-A [1]: reduced

Compound: Oc1ccc(C=Cc2cc(O)cc(O)c2)cc1 [resveratrol]
- proliferation compared to control group (no resveratrol) [2]: reduced
- proliferation compared to control group (no resveratrol) [3]: reduced
- expression of Puf-A ([4]; A549 lung cancer cells (p53 proficient)): reduced
- expression of Puf-A ([4]; HCT116 colon cancer cells (p53 proficient)): reduced
- expression of Puf-A ([4]; MB231 breast cancer cells (p53 deficient)): reduced
- expression of Puf-A ([4]; T98 glioblatoma cells (p53 deficient)): reduced
- proliferation compared to control group (no resveratrol) [5]: reduced
- proliferation compared to control group (no resveratrol) [6]: reduced

Compound: shPuf-A-1: novel short hairpin RNA targeting Puf-A, encoded by SEQ ID NO:2, delivered by lentivirus vector (DNA CCGGGCCTAGCATAGTAAATGACAACTCGAGTTGTCATTTACTATGCTAGGCTTTTTTG)
- expression and co-localization of LC3-II and LAMP1 ([7]; p53-deficient cancer cells): increase expression and co-localization
- LAMP1 around the nuclei ([7]; p53-proficient cancer cells): slight increase
- level of LC3-II expression [8]: slight increase
- expression level of Puf-A proteins compared to control shRNA [9]: significantly reduced
- expression level of p21 protein or RNA compared to control shRNA [10]: significantly increased
- expression level of p53 protein or RNA compared to control shRNA [10]: significantly increased
- knockdown efficiency on Puf-A expression compared to control shRNA [11]: approximately 90%
- expression level of Puf-A RNA compared to control shRNA [11]: significantly reduced
- proliferation rate compared to control shRNA virus [12]: reduced

Compound: shPuf-A-2: novel short hairpin RNA targeting Puf-A, encoded by SEQ ID NO:3, delivered by lentivirus vector (DNA CCGGCGTGTGATCCAGTGTTACATTCTCGAGAATGTAACACTGGATCACACGTTTTTG)
- level of LC3-II expression [8]: slight increase
- expression level of Puf-A proteins compared to control shRNA [9]: significantly reduced
- expression level of p21 protein or RNA compared to control shRNA [10]: significantly increased
- expression level of p53 protein or RNA compared to control shRNA [10]: significantly increased
- knockdown efficiency on Puf-A expression compared to control shRNA [11]: ~75%
- expression level of Puf-A RNA compared to control shRNA [11]: significantly reduced
- reduction of number of adenocarcinoma focus (>250 μm) vs control shRNA vector [13]: 15.4 fold
- reduction of number of adenoma focus (>250 μm) vs control shRNA vector [13]: 2.6 fold
- proliferation rate compared to control shRNA virus [12]: reduced

— patent US9885044B2, “Polynucleotides and methods for inhibiting cancer cells” (Chang Gung Memorial Hospital, Linkou, priority 2015, dated 2018)
